Measurements taken from article PMC2724550, “Citrus auraptene suppresses cyclin D1 and significantly delays N-methyl nitrosourea induced mammary carcinogenesis in female Sprague-Dawley rats” (BMC Cancer, 2009).

Key:
[1] = design: method as in PMID 18444171; settings: male Sprague-Dawley rats, cited from earlier work
c-Myc = system: c-Myc; design: method as in PMID 16979634; settings: 25 μM auraptene, HT-29 human colorectal cancer cells; cited from earlier work
MCF-7 cells = test: MCF-7 cell proliferation assay with IGF-1 (MTS); type: cell-based, human; settings: IGF-1 10 ng/mL, 24 hrs
Protocol: The human breast carcinoma cell line MCF-7 was obtained from ATCC (Manassas, VA) and grown in a sterile humidified environment at 37°C and 5% CO2: 95% air with complete DMEM media. The MCF-7 cells were plated in a 96 well plate at 30,000 cells/well at a confluency of 40%. The cells were serum starved for 24 h. At 22 h of serum starvation, the cells were treated with auraptene at 1 – 50 μM auraptene in DMSO (0.1%, v/v). The control cells received vehicle only (DMSO, 0.1% v/v). At 24 h of serum starvation, the cells were treated with IGF-1(10 ng/mL). After 24 hrs of IGF-1 treatment, the cells were treated with MTS [3-(4,5-dimethylthiazol-2-yl)-5-(3-carboxy methoxy phenyl)-2-(4-sulfophenyl)-2H-tetrazolium], for 2 h and the absorbance was measured at 490 nm.
Figure 2 Effects of auraptene on human breast carcinoma cells. (A) Effects of auraptene on MDA-MB-231 cell proliferation. Cells were serum starved for 5 h and then treated with 1–50 μM auraptene in 0.01% DMSO. Cell proliferation was assessed using the MTT reagent. Figures represent % vehicle control (means ± S.E.) # Replicates = 2 plates at 6 wells each for the treatment groups and 12 wells for the control group (* statistically different from control group, p < 0.05, One-way ANOVA, Tukey test). (B) Effects of auraptene on MCF-7 cell proliferation. Cells were serum starved for 24 h. […] Cell proliferation was assessed using the MTS reagent. […]

[2] = Tissue extraction and HPLC-fluorescence analysis of auraptene in rat tissues; type: in vivo, female Sprague-Dawley rats; settings: for average concentration in normal mammary glands: means ± S.E.
Protocol: The concentration of auraptene was measured in mammary glands, livers and tumors of rats. The specimens from the animals were weighed and minced on a glass plate kept on ice. The minced sample was added to 0.05 M Tris buffer, pH 7.4, containing 0.25 M sucrose in 1 ml. To 1 ml of this homogenized sample, 80 μL of 100 μM curcumin was added as internal standard followed by vortexing. The sample was then extracted twice with ethyl acetate: acetone (2:1 v/v). The combined supernatant was then dried under N2 gas, resuspended in 1 mL 70% methanol/H2O and analyzed by HPLC (Shimadzu, SIL-10AF) with UV (254 nm) and fluorescence detection (Shimadzu, RF-535) at excitation and emission wavelengths of 329 nm and 390 nm respectively. The flow rate in HPLC was 1 ml/min with C18*5μ column. The mobile phase started with 80% methanol in water up to 20 minutes and was increased in a linear gradient up to 100% methanol over the next 5 minutes. Under these conditions, auraptene eluted at 14 minutes and curcumin at 6 minutes. The ratio of area under the curve for auraptene at different concentrations to that of curcumin was plotted to make the standard curve. The concentration of auraptene in the specimens was calculated from the standard curve. For the calculation of concentration, 1 gm of the tissue was assumed to occupy a volume of 1 ml.
Figure 6 Concentrations of auraptene in rat tissues from the tumor study. The rat mammary glands, tumors and livers were weighed and homogenized. To the homogenate 80 μL of 100 μM curcumin was added as internal standard and extracted twice with ethyl acetate: acetone mixture (2:1 v/v). The extract was dried and resuspended in 1 mL 70% methanol/H2O and analyzed by HPLC (Shimadzu, SIL-10AF) with UV (254 nm) and fluorescence detection (Shimadzu, RF-535) at excitation and emission wavelengths of 329 nm and 390 nm respectively.

MDA-MB-231 cells = test: MDA-MB-231 cell proliferation assay (MTT); type: cell-based, human
Protocol: The human breast carcinoma cell line MDA-MB-231 was obtained from ATCC (Manassas, VA) and grown in a sterile humidified environment at 37°C and 5% CO2: 95% air with complete DMEM media. The proliferation study was done by MTT assay which uses a tetrazolium compound [3-(4, 5-dimethylthiazol-2-yl)-2,5-diphenyltetrazolium bromide; MTT], which is converted into a formazan product by living cells. The MDA-MB-231 cells were plated in a 96 well plate at 12,500 cells/well at a confluency of 40%. The serum containing media was replaced with serum free media 5 hrs before treatment. The cells were then treated with auraptene at 1 – 50 μM auraptene in DMSO (0.1%, v/v). The control cells received vehicle only (DMSO, 0.1% v/v). After 24 hrs of treatment the cells were treated with MTT for 2 h and the absorbance was measured at 540 nm.
Figure 2 Effects of auraptene on human breast carcinoma cells. (A) Effects of auraptene on MDA-MB-231 cell proliferation. Cells were serum starved for 5 h and then treated with 1–50 μM auraptene in […]. Cell proliferation was assessed using the MTT reagent. Figures represent % vehicle control (means ± S.E.) # Replicates = 2 plates at 6 wells each for the treatment groups and 12 wells for the control group (* statistically different from control group, p < 0.05, One-way ANOVA, Tukey test). (B) Effects of auraptene on MCF-7 cell proliferation. Cells were serum starved for 24 h. At 22 h after serum starvation the cells were treated with 1–50 μM auraptene in […]. At 24 h serum starvation, the cells were treated with IGF-1 (10 ng/mL). Cell proliferation was assessed using the MTS reagent. Figures represent % vehicle control (mean± S.E.) # Replicates = 2 plates at 6 wells each for the treatment groups. (* statistically different from IGF-1 group, p < 0.05, One-way ANOVA, Tukey test). (C) Effects of auraptene on IGF-1 induced cyclin D1 expression. MCF-7 cells were serum starved for 24 h. At 22 h after serum starvation the cells were treated with10 μM auraptene in […]. At 24 h serum starvation the cells were treated with IGF-1 (10 ng/mL). The cells were harvested at the 15, 30 minutes and at 1 h, 2 h, 4 h, 8 h and 24 h. The cell lysates were probed for cyclin D1. […] The lower band (36 KD) is cyclin D1 and the upper band is β-actin (43 KD).

[3] = Stability of auraptene in diet by HPLC; type: physicochemical; settings: animal room conditions, HPLC analysis, data not shown
[4] = 500 μmol/kg bw p.o. gavage, 1–4 h

For `CC(C)=CCC/C(C)=C/COc1ccc2ccc(=O)oc2c1` [auraptene], the “concentration in large intestine” value [1, 4] is listed as at most 20 nmol/g, the “concentration in small intestine” value [1, 4] is listed as at most 100 nmol/g and the concentration in stomach [1, 4] is listed as ~ 2000 nmol/g. For the same compound, the hepatic concentration ([1]; within 1–4 h of oral administration) was ~ 25 μm, the “expression of c-Myc” value (c-Myc) was “suppressed the expression of c-Myc” and the “suppression of MCF-7 cell proliferation” value (MCF-7 cells; 20 μM auraptene) was 26%. The “suppression of MCF-7 cell proliferation” value (MCF-7 cells; 50 μM auraptene) was 49%, the “average concentration in normal mammary glands” value ([2]; 200 ppm in diet) was 1.4 ± 0.5 µM and the average concentration in livers ([2]; 500 ppm in diet, mean, n = 2) was 0.87 µM. The “average concentration in normal mammary glands” value ([2]; 500 ppm in diet) was 1.8 ± 0.3 µM, the “reduction in MDA-MB-231 cell proliferation” value (MDA-MB-231 cells; 10 μM auraptene, 24 hrs, MTT) was “about 23%” and the “suppression of MDA-MB-231 cell proliferation” value (MDA-MB-231 cells; 25 μM auraptene, 24 hrs, MTT) was 85%. For the same compound, the “suppression of MDA-MB-231 cell proliferation” value (MDA-MB-231 cells; 50 μM auraptene compared with 25 μM) was “did not achieve any higher suppression of cell proliferation”, the IC50 (MDA-MB-231 cells; Homo sapiens, MDA-MB-231, 24 hrs treatment, serum free media, MTT, read-out: concentration suppressing MDA-MB-231 cell proliferation by 50%) was 12 µM and the stability in diet [3] was “not degraded”.
